Results taken from ChEMBL document CHEMBL3297657, “Synthesis and antitumor activities of novel α-aminophosphonate derivatives containing an alizarin moiety” (Eur J Med Chem, 2014).
Active and inactive are the calls of the source. The calls are words filed in the database; no cut-off is given here.

Experiments:
NCI-H460 [1] = experiment: Induction of apoptosis in human NCI-H460 cells assessed as late apoptotic cells at 8 uM by Annexin V/propidium iodide staining-based flow cytometry; type: functional, cell-based; conditions: TDE = time-dependent effect
NCI-H460 [2] = experiment: Induction of apoptosis in human NCI-H460 cells assessed as karyopyknosis and chromatin condensation at 5 to 20 uM after 24 hrs by Hoechst 33258 staining-based fluorescence microscopy relative to control; type: functional, cell-based
CNE = experiment: Cytotoxicity against human CNE cells after 48 hrs by MTT assay; type: functional, cell-based
KB = experiment: Cytotoxicity against human KB cells after 48 hrs by MTT assay; type: functional, cell-based
NCI-H460 [3] = experiment: Induction of apoptosis in human NCI-H460 cells assessed as late apoptotic cells after 24 hrs by Annexin V/propidium iodide staining-based flow cytometry; type: functional, cell-based
NCI-H460 [4] = experiment: Induction of apoptosis in human NCI-H460 cells assessed as caspase-4 activation after 24 hrs by qRT-PCR analysis; type: functional, cell-based
NCI-H460 [5] = experiment: Induction of apoptosis in human NCI-H460 cells assessed as change in mitochondrial membrane potential at 8 uM by JC-1 staining-based fluorescence microscopy relative to control; type: functional, cell-based; conditions: TDE = time-dependent effect
A549 = experiment: cells; conditions: Homo sapiens, A549, 48 h
Description: Cytotoxicity against human A549 cells after 48 hrs by MTT assay

NCI-H460 [6] = experiment: Cell cycle arrest in human NCI-H460 cells assessed as accumulation at S phase at 20 uM after 48 hrs by Rnase A/propidium iodide staining-based flow cytometry (reference value: 19.41%); type: functional
HCT-116 = experiment: cells; conditions: Homo sapiens, HCT-116, 48 h
Description: Cytotoxicity against human HCT116 cells after 48 hrs by MTT assay

NCI-H460 [7] = experiment: Induction of apoptosis in human NCI-H460 cells assessed as upregulation of CAMK2 mRNA expression after 24 hrs by qRT-PCR analysis; type: functional, cell-based
NCI-H460 [8] = experiment: Induction of apoptosis in human NCI-H460 cells assessed as early apoptotic cells at 5 to 20 uM after 24 hrs by Annexin V/propidium iodide staining-based flow cytometry relative to control; type: functional, cell-based
NCI-H460 [9] = experiment: Cell cycle arrest in human NCI-H460 cells assessed as accumulation at G1 phase at 20 uM after 48 hrs by Rnase A/propidium iodide staining-based flow cytometry (reference value: 46.69%); type: functional
NCI-H460 [10] = experiment: Induction of apoptosis in human NCI-H460 cells assessed as early apoptotic cells at 5 uM after 24 hrs by Annexin V/propidium iodide staining-based flow cytometry (reference value: 6.8%); type: functional
NCI-H460 [11] = experiment: Induction of apoptosis in human NCI-H460 cells assessed as downregulation of Bcl-2 mRNA expression after 24 hrs by qRT-PCR analysis; type: functional, cell-based
NCI-H460 [12] = experiment: Induction of apoptosis in human NCI-H460 cells assessed as late apoptotic cells at 8 uM after 48 hrs by Annexin V/propidium iodide staining-based flow cytometry (reference value: 14.1%); type: functional
NCI-H460 [13] = experiment: Induction of apoptosis in human NCI-H460 cells assessed as viable cells at 8 uM after 24 hrs by Annexin V/propidium iodide staining-based flow cytometry (reference value: 72.2%); type: functional; conditions: NCI-H460, 24 h, read-out: Activity
NCI-H460 [14] = experiment: Induction of apoptosis in human NCI-H460 cells assessed as caspase-3 activation after 24 hrs by qRT-PCR analysis; type: functional, cell-based
NCI-H460 [15] = experiment: Cell cycle arrest in human NCI-H460 cells assessed as accumulation at G2 phase at 5 uM after 48 hrs by Rnase A/propidium iodide staining-based flow cytometry (reference value: 33.9%); type: functional
NCI-H460 [16] = experiment: Induction of apoptosis in human NCI-H460 cells assessed as viable cells at 5 uM after 24 hrs by Annexin V/propidium iodide staining-based flow cytometry (reference value: 72.2%); type: functional; conditions: NCI-H460, 24 h, read-out: Activity
NCI-H460 [17] = experiment: Induction of apoptosis in human NCI-H460 cells assessed as upregulation of CAMK1 mRNA expression after 24 hrs by qRT-PCR analysis; type: functional, cell-based
NCI-H460 [18] = experiment: Induction of apoptosis in human NCI-H460 cells assessed as increase in intracellular ROS generation at 5 to 20 uM after 24 hrs by DCFH-DA staining-based fluorescence microscopy; type: functional, cell-based
NCI-H460 [19] = experiment: Induction of apoptosis in human NCI-H460 cells assessed as karyopyknosis and chromatin condensation at 8 uM by Hoechst 33258 staining-based fluorescence microscopy relative to control; type: functional, cell-based; conditions: TDE = time-dependent effect
NCI-H460 [20] = experiment: Induction of apoptosis in human NCI-H460 cells assessed as early apoptotic cells at 10 uM after 24 hrs by Annexin V/propidium iodide staining-based flow cytometry (reference value: 6.8%); type: functional
NCI-H460 [21] = experiment: Induction of apoptosis in human NCI-H460 cells assessed as viable cells at 10 uM after 24 hrs by Annexin V/propidium iodide staining-based flow cytometry (reference value: 72.2%); type: functional; conditions: NCI-H460, 24 h, read-out: Activity
NCI-H460 [22] = experiment: Induction of apoptosis in human NCI-H460 cells assessed as change in mitochondrial membrane potential at 8 uM after 12 to 48 hrs by JC-1 staining-based fluorescence microscopy relative to control; type: functional, cell-based
NCI-H460 [23] = experiment: Induction of apoptosis in human NCI-H460 cells assessed as change in mitochondrial membrane potential after 24 hrs by JC-1 staining-based fluorescence microscopy relative to control; type: functional, cell-based
NCI-H460 [24] = experiment: Induction of apoptosis in human NCI-H460 cells assessed as necrotic cells at 10 uM after 24 hrs by Annexin V/propidium iodide staining-based flow cytometry (reference value: 6.9%); type: functional
NCI-H460 [25] = experiment: Induction of apoptosis in human NCI-H460 cells assessed as karyopyknosis and chromatin condensation after 24 hrs by Hoechst 33258 staining-based fluorescence microscopy relative to control; type: functional, cell-based
NCI-H460 [26] = experiment: Cell cycle arrest in human NCI-H460 cells assessed as accumulation at G1 phase at 10 uM after 48 hrs by Rnase A/propidium iodide staining-based flow cytometry (reference value: 46.69%); type: functional
NCI-H460 [27] = experiment: Induction of apoptosis in human NCI-H460 cells assessed as karyopyknosis and chromatin condensation at 8 uM after 12 to 48 hrs by Hoechst 33258 staining-based fluorescence microscopy relative to control; type: functional, cell-based
NCI-H460 [28] = experiment: Induction of apoptosis in human NCI-H460 cells assessed as viable cells at 8 uM by Annexin V/propidium iodide staining-based flow cytometry; type: functional, cell-based; conditions: TDE = time-dependent effect
NCI-H460 [29] = experiment: Cell cycle arrest in human NCI-H460 cells assessed as accumulation at S phase at 8 uM after 12 hrs by Rnase A/propidium iodide staining-based flow cytometry (reference value: 19.41%); type: functional
NCI-H460 [30] = experiment: Induction of apoptosis in human NCI-H460 cells assessed as increase in intracellular calcium release at 5 to 20 uM after 24 hrs by Fluo-3/AM staining-based fluorescence microscopy; type: functional, cell-based
NCI-H460 [31] = experiment: Induction of apoptosis in human NCI-H460 cells assessed as necrotic cells at 8 uM by Annexin V/propidium iodide staining-based flow cytometry; type: functional, cell-based; conditions: TDE = time-dependent effect
NCI-H460 [32] = experiment: Induction of apoptosis in human NCI-H460 cells assessed as early apoptotic cells at 8 uM by Annexin V/propidium iodide staining-based flow cytometry; type: functional, cell-based; conditions: TDE = time-dependent effect
NCI-H460 [33] = experiment: Induction of apoptosis in human NCI-H460 cells assessed as late apoptotic cells at 8 uM after 12 hrs by Annexin V/propidium iodide staining-based flow cytometry (reference value: 14.1%); type: functional
NCI-H460 [34] = experiment: Induction of apoptosis in human NCI-H460 cells assessed as necrotic cells after 24 hrs by Annexin V/propidium iodide staining-based flow cytometry; type: functional, cell-based

| IC50 (A549) [µM] | IC50 (HCT-116) [µM] | Compound | Activity (NCI-H460 [1]) | Activity (NCI-H460 [2]) | IC50 (CNE) [µM] | IC50 (KB) [µM] | Activity (NCI-H460 [3]) | Activity (NCI-H460 [4]) | Activity (NCI-H460 [5]) | Activity (NCI-H460 [6]) [%] | Activity (NCI-H460 [7]) | Activity (NCI-H460 [8]) | Activity (NCI-H460 [9]) [%] | Activity (NCI-H460 [10]) [%] | Activity (NCI-H460 [11]) | Activity (NCI-H460 [12]) [%] | viability at 8 µM (NCI-H460 [13]) [%] | Activity (NCI-H460 [14]) | Activity (NCI-H460 [15]) [%] | viability at 5 µM (NCI-H460 [16]) [%] | other results |
| --- | --- | --- | --- | --- | --- | --- | --- | --- | --- | --- | --- | --- | --- | --- | --- | --- | --- | --- | --- | --- | --- |
| 6.76 | 13.3 | CCOP(=O)(OCC)C(NC(=O)C(C)Oc1ccc2c(c1O)C(=O)c1ccccc1C2=O)c1ccccc1F (centres undefined) | tde | Active | 30.2 | 0.7 | Dose-dependent effect | Dose-dependent effect | tde | 11.25 | Dose-dependent effect | Active | 68.89 | 28.9 | Dose-dependent effect | 9.3 | 46.3 | Dose-dependent effect | 23.14 | 61.6 | Activity (NCI-H460 [17]): Dose-dependent effect; Activity (NCI-H460 [18]): Active; Activity (NCI-H460 [19]): tde; Activity (NCI-H460 [20]): 56.3%; viability at 10 µM (NCI-H460 [21]): 36.2%; Activity (NCI-H460 [22]): Active; Activity (NCI-H460 [23]): Dose-dependent effect; Activity (NCI-H460 [24]): 0.8%; Activity (NCI-H460 [25]): Dose-dependent effect; Activity (NCI-H460 [26]): 65.81%; Activity (NCI-H460 [27]): Active; Activity (NCI-H460 [28]): tde; Activity (NCI-H460 [29]): 14.65%; Activity (NCI-H460 [30]): Active; Activity (NCI-H460 [31]): tde; Activity (NCI-H460 [32]): tde; Activity (NCI-H460 [33]): 7.9%; Activity (NCI-H460 [34]): Dose-dependent effect |
| 12.3 | 10.5 | CCOP(=O)(OCC)C(NC(=O)C(C)Oc1ccc2c(c1O)C(=O)c1ccccc1C2=O)c1ccccc1OC (centres undefined) | tde | Active | 34.2 | 0.88 | Dose-dependent effect | Dose-dependent effect | tde | 11.81 | Dose-dependent effect | Active | 65.1 | 26.6 | Dose-dependent effect | 18.2 | 47.5 | Dose-dependent effect | 34.41 | 62.1 | Activity (NCI-H460 [17]): Dose-dependent effect; Activity (NCI-H460 [18]): Active; Activity (NCI-H460 [19]): tde; Activity (NCI-H460 [20]): 32.4%; viability at 10 µM (NCI-H460 [21]): 41.4%; Activity (NCI-H460 [22]): Active; Activity (NCI-H460 [23]): Dose-dependent effect; Activity (NCI-H460 [24]): 8.4%; Activity (NCI-H460 [25]): Dose-dependent effect; Activity (NCI-H460 [26]): 60.79%; Activity (NCI-H460 [27]): Active; Activity (NCI-H460 [28]): tde; Activity (NCI-H460 [29]): 15.62%; Activity (NCI-H460 [30]): Active; Activity (NCI-H460 [31]): tde; Activity (NCI-H460 [32]): tde; Activity (NCI-H460 [33]): 5.6%; Activity (NCI-H460 [34]): Dose-dependent effect |
| 15.9 | 40 | CCOP(=O)(OCC)C(NC(=O)C(C)Oc1ccc2c(c1O)C(=O)c1ccccc1C2=O)c1cccc2ccccc12 (centres undefined) | tde | Active | > 50 | 1.02 | Dose-dependent effect | Dose-dependent effect | tde | 17.06 | Dose-dependent effect | Active | 61.6 | 10.9 | Dose-dependent effect | 14.8 | 47.5 | Dose-dependent effect | 25.78 | 71.4 | Activity (NCI-H460 [17]): Dose-dependent effect; Activity (NCI-H460 [18]): Active; Activity (NCI-H460 [19]): tde; Activity (NCI-H460 [20]): 35.7%; viability at 10 µM (NCI-H460 [21]): 44.6%; Activity (NCI-H460 [22]): Active; Activity (NCI-H460 [23]): Dose-dependent effect; Activity (NCI-H460 [24]): 1.1%; Activity (NCI-H460 [25]): Dose-dependent effect; Activity (NCI-H460 [26]): 59.86%; Activity (NCI-H460 [27]): Active; Activity (NCI-H460 [28]): tde; Activity (NCI-H460 [29]): 0.11%; Activity (NCI-H460 [30]): Active; Activity (NCI-H460 [31]): tde; Activity (NCI-H460 [32]): tde; Activity (NCI-H460 [33]): 8.3%; Activity (NCI-H460 [34]): Dose-dependent effect |
